# Results taken from PMC7235792, “Effect of the Most Relevant CYP3A4 and CYP3A5 Polymorphisms on the Pharmacokinetic Parameters of 10 CYP3A Substrates” (Biomedicines, 2020).
# What was measured:
# [1] = human, in vivo
# [2] = CYP3A5 *1/*1 subjects compared to *1/*3 and *3/*3; population PK model; cited from earlier work
smiles,measurement,setting,value
COC(c1ccccc1)(c1ccccc1)[C@H](Oc1nc(C)cc(C)n1)C(=O)O [ambrisentan],association of CYP3A polymorphisms with PK parameters,[1],no significant association
same,influence of CYP3A4 or CYP3A5 polymorphisms on elimination,[1],it does not appear that CYP3A4 or CYP3A5 polymorphisms influence its elimination
CCOC(=O)C1=C(COCCN)NC(C)=C(C(=O)OC)C1c1ccccc1Cl (centres unmarked) [amlodipine],AUC in CYP3A5 PM,[1],higher AUC
O=C1CCc2ccc(OCCCCN3CCN(c4cccc(Cl)c4Cl)CC3)cc2N1 [aripiprazole],association of CYP3A polymorphisms with PK parameters,[1],no significant association
CC(C)C(=O)Oc1ccc(CO)cc1[C@H](CCN(C(C)C)C(C)C)c1ccccc1 [fesoterodine],AUC in CYP3A4 mutated alleles carriers (tendency),[1],lower AUC
same,Cl in CYP3A4 mutated alleles carriers (tendency),[1],higher Cl
Cc1cc2c(s1)Nc1ccccc1N=C2N1CCN(C)CC1 [olanzapine],association of CYP3A polymorphisms with PK parameters,[1],no significant association
OCCOCCN1CCN(C2=Nc3ccccc3Sc3ccccc32)CC1 [quetiapine],increased Cl,[2],29%
